# Test results as given in patent US20110105623A1 (Biogenic Innovations, LLC, priority 2009, published 2011).
# Where “and” joins values, the source holds several entries; their conditions need not be identical. Equal values may be shown once. Entries after “also recorded” stand apart in the source; their conditions may differ. Read-outs that look alike come from different tables or passages of the source.
# Columns and labels:
# [1] = test system: Vero (African green monkey kidney) cells; test: Toxicity control for Pre-Treatment test; assay type: cell-based
# From the text: (§1) B. Toxicity Control for Pre-Treatment Test.
# [2] = test system: MRC-5 (Human lung fibroblasts) cells; test: Toxicity control for Pre-Treatment test; assay type: cell-based
# From the text: as §1
# [3] = test system: normal flora found in the milks; test: Standard plate counts of non-probiotic microorganisms in Acidophilus milks; assay type: cell-based
# [4] = test system: ATCC strain 8739 Escherichia coli; test: Bromcresol Purple color change with MSM; assay type: cell-based
# Method: To investigate whether MSM functions as a carrier/transporter, the ability of MSM to transport Bromcresol into the E. coli was evaluated. Bromcresol Purple is an indicator dye that turns yellow in the presence of E. coli bacteria. It is non-toxic to the organism. […] All concentrations were plated out to 10^−7 dilutions to ascertain the log reduction.
# Flake OptiMSM was weighed out using a certified Mettler Toledo AG245 balance SN: 1115210833 and aliquoted for each concentration. […] Tubes were cooled to room temperature which was approximately 20° C. All tubes were then spiked with the same dilution of Escherichia coli that gave a level of colony forming units at 6.0×10^6/mL (6.8). The tubes were then incubated at 25° C. Daily observation for color change was performed during the first seven days. The tubes were mixed periodically to ensure that the OptiMSM was well equilibrated at all times. A positive and negative control was ascertained.
# [5] = test system: Aspergillus niger; test: USP <51> AET in cosmetic cream/composition; assay type: cell-based; details: 10% MSM in cosmetic cream without preservative, 48 hrs-28 days
# [6] = test system: normal flora found in the product; details: for Log Growth: rows 0.5-10% MSM
# [7] = test system: Staphylococcus aureus; test: USP <51> AET in cosmetic cream/composition; assay type: cell-based; details: for Log Reduction from Initial Microorganism Inoculum: 14, 28 Days
# [8] = test system: E. coli; test: Log growth in Müller-Hinton media with or without NaCl; assay type: cell-based, Escherichia coli
# Method: Standard Müller-Hinton media was compared to Müller-Hinton media supplemented with NaCl to the same level as the saline-based media of Example 4. […] After inoculation of each MSM-containing media type with 1.9×10^7 cfu/mL of E. coli, the cultures were incubated at 35° C. for seven days. Aliquots of each culture were taken at 24 and 48 hours, as well as 7 days.
substance,measurement,setting,value
Methylsulfonylmethane [MSM],Test Product Cytotoxicity (CPE),[1]; 0.5%,00
same,Test Product Cytotoxicity (CPE),[1]; 1%,00
same,Test Product Cytotoxicity (CPE),[1]; 2%,00
same,Test Product Cytotoxicity (CPE),[1]; 3%,00
same,Test Product Cytotoxicity (CPE),[1]; 4%,00
same,Test Product Cytotoxicity (CPE),[1]; 5%,00
same,Test Product Cytotoxicity (CPE),[1]; 6%,00
same,Test Product Cytotoxicity (CPE),[1]; 7%,00
same,Test Product Cytotoxicity (CPE),"[2]; MRC-5, 0.5%",00
same,Test Product Cytotoxicity (CPE),"[2]; MRC-5, 1%",00
same,Test Product Cytotoxicity (CPE),"[2]; MRC-5, 2%",00
same,Test Product Cytotoxicity (CPE),"[2]; MRC-5, 3%",00
same,Test Product Cytotoxicity (CPE),"[2]; MRC-5, 4%",00
same,Test Product Cytotoxicity (CPE),"[2]; MRC-5, 5%",00
same,Test Product Cytotoxicity (CPE),"[2]; MRC-5, 6%",00
same,growth of normal flora (standard plate counts),"[3]; 5.0% MSM, throughout the study",did not allow any significant growth
same,Growth of non-probiotic microorganisms in Acidophilus Milk,"[3]; A/B milk […] MSM, Day 0",370 cfu per mL
same,Growth of non-probiotic microorganisms in Acidophilus Milk,"[3]; A/B milk […] MSM, Day 3",480 cfu per mL
same,Growth of non-probiotic microorganisms in Acidophilus Milk,"[3]; A/B milk […] MSM, Day 7",570 cfu per mL
same,Growth of non-probiotic microorganisms in Acidophilus Milk,"[3]; A/B milk […] MSM, Day 14",1460 cfu per mL
same,Growth of non-probiotic microorganisms in Acidophilus Milk,"[3]; A/B milk […] MSM, Day 21",3500 cfu per mL
same,Growth of non-probiotic microorganisms in Acidophilus Milk,"[3]; A/B milk […] MSM, Day 28",110000 cfu per mL
same,Growth of non-probiotic microorganisms in Acidophilus Milk,"[3]; Acidophilus milk 0.50% MSM, Day 0, duplicates",20 cfu per mL and 30 cfu per mL
same,Growth of non-probiotic microorganisms in Acidophilus Milk,"[3]; Acidophilus milk 0.50% MSM, Day 3, duplicates",10 cfu per mL
same,Growth of non-probiotic microorganisms in Acidophilus Milk,"[3]; Acidophilus milk 0.50% MSM, Day 7, duplicates",10 cfu per mL
same,Growth of non-probiotic microorganisms in Acidophilus Milk,"[3]; Acidophilus milk 0.50% MSM, Day 14, duplicates",20 cfu per mL
same,Growth of non-probiotic microorganisms in Acidophilus Milk,"[3]; Acidophilus milk 0.50% MSM, Day 21, duplicates",20 cfu per mL and 40 cfu per mL
same,Growth of non-probiotic microorganisms in Acidophilus Milk,"[3]; Acidophilus milk 5% MSM, Day 0, duplicates",10 cfu per mL and 20 cfu per mL
same,Growth of non-probiotic microorganisms in Acidophilus Milk,"[3]; Acidophilus milk 5% MSM, Day 3, duplicates",10 cfu per mL
same,Growth of non-probiotic microorganisms in Acidophilus Milk,"[3]; Acidophilus milk 5% MSM, Day 7, duplicates",10 cfu per mL and 20 cfu per mL
same,Growth of non-probiotic microorganisms in Acidophilus Milk,"[3]; Acidophilus milk 5% MSM, Day 14, duplicates",20 cfu per mL and 10 cfu per mL
same,Growth of non-probiotic microorganisms in Acidophilus Milk,"[3]; Acidophilus milk 5% MSM, Day 21, duplicates",20 cfu per mL and 10 cfu per mL
same,Growth of non-probiotic microorganisms in Acidophilus Milk,"[3]; Acidophilus milk 5% MSM, Day 28, duplicates",10 cfu per mL
same,Growth of non-probiotic microorganisms in Acidophilus Milk,"[3]; Acidophilus milk […] MSM, Day 0, duplicates",10 cfu per mL
same,Growth of non-probiotic microorganisms in Acidophilus Milk,"[3]; Acidophilus milk […] MSM, Day 14, duplicates",<10 cfu per mL
same,color change of the broth,"[4]; 5-7% MSM, Day one",color change of the broth to yellow
same,color change of the broth,"[4]; 8% MSM, Day one, Day three",slight clearing of color; also recorded: turning to the typical yellow color
same,color change of the broth,"[4]; 9% MSM, Day 7",turning to a yellow color
same,color change of the broth,"[4]; 10%-16% MSM, Day 7, 14, 30",No color change; also recorded: no signs of change
same,"organism recovery, streaked on MacConkey agar","[4]; concentration tubes 10%-16% MSM, 72 hour incubation",No organisms were observed
same,AET microorganism count,[5]; 48 hours after inoculation,8 × 10^3
same,AET microorganism count,[5]; 14 days after inoculation,6 × 10^3
same,AET microorganism count,[5]; 28 days after inoculation,5 × 10^2
same,Log Growth of 40% Milk Fat,"[6]; 0.5% MSM, day 0",0.00 logs
same,Log Growth of 40% Milk Fat,"[6]; 0.5% MSM, day 7",0.35 logs
same,Log Growth of 40% Milk Fat,"[6]; 0.5% MSM, day 14",2.32 logs
same,Log Growth of 40% Milk Fat,"[6]; 0.5% MSM, day 21",4.46 logs
same,Log Growth of 40% Milk Fat,"[6]; 0.5% MSM, day 24",4.02 logs
same,Log Growth of 40% Milk Fat,"[6]; 0.5% MSM, day 28",1.95 logs
same,Log Growth of 40% Milk Fat,"[6]; 1.0% MSM, day 7",0.00 logs
same,Log Growth of 40% Milk Fat,"[6]; 1.0% MSM, day 14",2.37 logs
same,Log Growth of 40% Milk Fat,"[6]; 1.0% MSM, day 21",4.35 logs
same,Log Growth of 40% Milk Fat,"[6]; 1.0% MSM, day 24",3.33 logs
same,Log Growth of 40% Milk Fat,"[6]; 1.0% MSM, day 28",3.86 logs
same,Log Growth,"[6]; 2% Milk Fat, day 7",1.59 log
same,Log Growth of 40% Milk Fat,"[6]; 5.0% MSM, day 0",0.00 logs
same,Log Growth of 40% Milk Fat,"[6]; 5.0% MSM, day 7",0.80 logs
same,Log Growth of 40% Milk Fat,"[6]; 5.0% MSM, day 14",0.50 logs
same,Log Growth of 40% Milk Fat,"[6]; 5.0% MSM, day 21",1.25 logs
same,Log Growth of 40% Milk Fat,"[6]; 5.0% MSM, day 24",1.03 logs
same,Log Growth of 40% Milk Fat,"[6]; 5.0% MSM, day 28",0.35 logs
same,Log Growth of 40% Milk Fat,"[6]; 10.0% MSM, day 0",0.00 logs
same,Log Growth of 40% Milk Fat,"[6]; 10.0% MSM, day 7",0.00 logs
same,Log Growth of 40% Milk Fat,"[6]; 10.0% MSM, day 14",1.95 logs
same,Log Growth of 40% Milk Fat,"[6]; 10.0% MSM, day 21",4.45 logs
same,Log Growth of 40% Milk Fat,"[6]; 10.0% MSM, day 24",0.85 logs
same,Log Growth of 40% Milk Fat,"[6]; 10.0% MSM, day 28",0.35 logs
same,lower than the control by,"[6]; 40% milk product, Day 21, 5.0% MSM",3.22 logs
same,microbial load,"[6]; 40% milk product, Day 21, […] MSM",2.16 logs
same,microbial count,"[6]; 40% milk product, Day 28, 5.0% and 10.0% MSM",0.35 logs
same,Log Growth,"[6]; Nonfat Milk, day 7",1.00 log
same,Log Growth of 40% Milk Fat,"[6]; […] MSM, day 0",0.00 logs
same,Log Growth of 40% Milk Fat,"[6]; […] MSM, day 7",0.00 logs
same,Log Growth of 40% Milk Fat,"[6]; […] MSM, day 14",0.00 logs
same,Log Growth of 40% Milk Fat,"[6]; […] MSM, day 21",2.16 logs
same,Log Growth of 40% Milk Fat,"[6]; […] MSM, day 24",3.79 logs
same,Log Growth of 40% Milk Fat,"[6]; […] MSM, day 28",0.95 logs
same,AET microorganism count,"[7]; 10% MSM in cosmetic cream without preservative, 48 hrs-28 days",<10
same,Log Reduction from Initial Microorganism Inoculum,[7]; 10% MSM in preservative-free jojoba cream,5.6 log
same,Log Reduction from Initial Microorganism Inoculum,"[7]; 10% MSM, Composition #1",5.7 log
same,Log Reduction from Initial Microorganism Inoculum,"[7]; 10% MSM, Composition #2",5.7 log
same,log reduction from the initial inoculum,"[8]; 24 hours, all media, MSM greater than 13%",approximately 1 log
same,reduced E. coli growth by,"[8]; 48 hours, MSM greater than 13%",1-2 logs
same,log reduction in E. coli,"[8]; 7 days, FMHS, 12% MSM",3 log
